# Test results as given in patent US20210052703A1 (SHANGHAI BENEMAE PHARMACEUTICAL CORPORATION, priority 2018, published 2021).
# How the values were obtained:
# [1] = body weight, food intake and body composition in diet-induced obesity cynomolgus monkeys (Example 4); settings: both, cynomolgus monkey, in vivo, sc
# Experimental: (§1) The monkeys are divided into two groups based on age, sex, body weight and BMI, each group having one male and one female.
# (§2) The study included three periods: baseline period (the first week), treatment period (the second week through the seventh week), and recovering period (the eighth week). After the monkeys adapted to the meal time for at least 30 days, the body weight, BMI, and body composition of each animal was determined at day 7 of the first baseline period.
# (§3) Group 2 animals were administered three times a day at a dose of 10 μg/kg each time during week 2, three times a day at a dose of 20 μg/kg each time during week 3, and three times a day at a dose of 40 μg/kg each time during the first three days of week 4.
# (§4) The dose for Group 1 animals during week 5 through week 7 was determined based on the dose given to Group 2 animals during week 2 through week 4. Group 1 animals were administered twice a day at a dose of 10 μg/kg each time during week 5, twice a day at a dose of 20 μg/kg each time during week 6, and twice a day at a dose of 20 μg/kg each time during week 7 (same dose as week 6). During the 6-week treatment period, the body weight and crown-rump height of each animal were measured at the end of each week. The body fat content was measured at week 4 and week 7. No administration was given during week 8.
# (§5) The body weight was measured once a week, and crown-rump height was measured at the end of week 1, week 4, and week 7 when Dual-Energy X-ray Absorptiometry (DEXA) scan was taken. The animals were anesthetized by intramuscular administration of 0.02 m/kg Shumianning. While resting on one side, the animals were measured from the top of the head to the bottom of tail as the crown-rump height. BMI was calculated using the formula: BMI=body weight (kg)/crown-rump height (m)^2. DEXA scan was conducted while the animals were anesthetized and body compositions were analyzed based on DEXA scan.
# [2] = system: diet-induced obesity cynomolgus monkeys; experiment: as above
# Experimental: as §1, §2, §3, §4, §5
# [3] = system: patients with type 2 diabetes; experiment: trial 5C: Beinaglutide with metformin, multicenter, type 2 diabetes; type: in vivo, human
# Text: Note: Covariance analysis was used for comparison between groups. The dependent variable was the change in body weight relative to baseline, and the covariate was baseline. Body weight change from baseline=post-treatment−baseline. Data from 5C test data.
# type 2 diabetic patients = experiment: trial 5B: Beinaglutide with metformin in type 2 diabetic patients
# diabetes patients = settings: 0.2 mg TID for 12 weeks; temporary
# [4] = trials 5A and 5B: time course of action and adverse events; type: in vivo, human
# [5] = system: mice with normal glycemic index; experiment: glucose-induced high blood sugar in mice; type: in vivo
# mice = experiment: blood sugar increase induced by alloxan and streptozotocin in mice; type: in vivo
# [6] = Test group (Beinaglutide+metformin), 84 days (12 weeks) from baseline
# [7] = Test group, 248 subjects, 84 days from baseline
# [8] = Test group, 84 days from baseline
compound,measurement,setting,value
CC[C@H](C)[C@H](NC(=O)[C@H](Cc1ccccc1)NC(=O)[C@H](CCC(=O)O)NC(=O)[C@H](CCCCN)NC(=O)[C@H](C)NC(=O)[C@H](C)NC(=O)[C@H](CCC(N)=O)NC(=O)CNC(=O)[C@H](CCC(=O)O)NC(=O)[C@H](CC(C)C)NC(=O)[C@H](Cc1ccc(O)cc1)NC(=O)[C@H](CO)NC(=O)[C@H](CO)NC(=O)[C@@H](NC(=O)[C@H](CC(=O)O)NC(=O)[C@H](CO)NC(=O)[C@@H](NC(=O)[C@H](Cc1ccccc1)NC(=O)[C@@H](NC(=O)CNC(=O)[C@H](CCC(=O)O)NC(=O)[C@H](C)NC(=O)[C@@H](N)Cc1cnc[nH]1)[C@@H](C)O)[C@@H](C)O)C(C)C)C(=O)N[C@@H](C)C(=O)N[C@@H](Cc1c[nH]c2ccccc12)C(=O)N[C@@H](CC(C)C)C(=O)N[C@H](C(=O)N[C@@H](CCCCN)C(=O)NCC(=O)N[C@@H](CCCNC(=N)N)C(=O)O)C(C)C [Beinaglutide],MTD at 504 h,[1],0.02 to 0.04 mg/kg
same,body fat content,"[2]; Group 1, end of week 7, compared to baseline",decrease in body fat content
same,body fat content,"[2]; Group 2, end of week 4, compared to baseline",significant decrease in body fat content
same,signs of anorexia,"[2]; Group 2, 40 μg/kg three times a day, first three days of week 4",severe signs of anorexia
same,Body Weight,"[2]; animal F1 (female, Group 1), Week 5, 10 μg/kg twice a day, Week 4 before treatment 5.96",5.92 kg
same,BMI,"[2]; animal F1, Week 5, 10 μg/kg twice a day, Week 4 before treatment 41",39 kg/m^2
same,Body Weight,"[2]; animal F1, Week 6, 20 μg/kg twice a day, Week 4 before treatment 5.96",5.94 kg
same,BMI,"[2]; animal F1, Week 6, 20 μg/kg twice a day, Week 4 before treatment 41",39 kg/m^2
same,Body Weight,"[2]; animal F1, Week 7, 20 μg/kg twice a day, Week 4 before treatment 5.96",5.84 kg
same,BMI,"[2]; animal F1, Week 7, 20 μg/kg twice a day, Week 4 before treatment 41",38 kg/m^2
same,Fat Content (DEXA),"[2]; animal F1, Week 7, after Beinaglutide weeks 5-7, Week 4 1.98",1.81 kg
same,Lean Mass (DEXA),"[2]; animal F1, Week 7, after Beinaglutide weeks 5-7, Week 4 4.09",3.98 kg
same,Body Fat Percentage,"[2]; animal F1, Week 7, after Beinaglutide weeks 5-7, Week 4 33.2",31.0%
same,Body Weight,"[2]; animal F2 (female, Group 2), Week 2, 10 μg/kg three times a day, Week 1 baseline 6.18",5.96 kg
same,Body Weight,"[2]; animal F2, Week 3, 20 μg/kg three times a day, Week 1 baseline 6.18",5.76 kg
same,Body Weight,"[2]; animal F2, Week 4, 40/20 μg/kg three times a day, Week 1 baseline 6.18",5.56 kg
same,BMI,"[2]; animal F2, Week 4, 40/20 μg/kg three times a day, Week 1 baseline 41",37 kg/m^2
same,Fat Content (DEXA),"[2]; animal F2, Week 4, after Beinaglutide weeks 2-4, baseline 2.97",2.71 kg
same,Lean Mass (DEXA),"[2]; animal F2, Week 4, after Beinaglutide weeks 2-4, baseline 3.17",2.89 kg
same,Body Fat Percentage,"[2]; animal F2, Week 4, after Beinaglutide weeks 2-4, baseline 48.1",48.7%
same,Body Weight,"[2]; animal M1 (male, Group 1), Week 5, 10 μg/kg twice a day, Week 4 before treatment 11.20",10.90 kg
same,BMI,"[2]; animal M1, Week 5, 10 μg/kg twice a day, Week 4 before treatment 51",49 kg/m^2
same,Body Weight,"[2]; animal M1, Week 6, 20 μg/kg twice a day, Week 4 before treatment 11.20",10.44 kg
same,BMI,"[2]; animal M1, Week 6, 20 μg/kg twice a day, Week 4 before treatment 51",47 kg/m^2
same,Body Weight,"[2]; animal M1, Week 7, 20 μg/kg twice a day, Week 4 before treatment 11.20",10.26 kg
same,BMI,"[2]; animal M1, Week 7, 20 μg/kg twice a day, Week 4 before treatment 51",46 kg/m^2
same,Fat Content (DEXA),"[2]; animal M1, Week 7, after Beinaglutide weeks 5-7, Week 4 3.66",3.15 kg
same,Lean Mass (DEXA),"[2]; animal M1, Week 7, after Beinaglutide weeks 5-7, Week 4 7.35",6.92 kg
same,Body Fat Percentage,"[2]; animal M1, Week 7, after Beinaglutide weeks 5-7, Week 4 32.7",30.7%
same,Body Weight,"[2]; animal M2 (male, Group 2), Week 2, 10 μg/kg three times a day, Week 1 baseline 10.52",10.30 kg
same,BMI,"[2]; animal M2, Week 2, 10 μg/kg three times a day, Week 1 baseline 52",51 kg/m^2
same,Body Weight,"[2]; animal M2, Week 3, 20 μg/kg three times a day, Week 1 baseline 10.52",10.00 kg
same,Body Weight,"[2]; animal M2, Week 4, 40/20 μg/kg three times a day, Week 1 baseline 10.52",9.70 kg
same,BMI,"[2]; animal M2, Week 4, 40/20 μg/kg three times a day, Week 1 baseline 52",48 kg/m^2
same,Fat Content (DEXA),"[2]; animal M2, Week 4, after Beinaglutide weeks 2-4, baseline 3.49",2.88 kg
same,Lean Mass (DEXA),"[2]; animal M2, Week 4, after Beinaglutide weeks 2-4, baseline 6.88",6.59 kg
same,Body Fat Percentage,"[2]; animal M2, Week 4, after Beinaglutide weeks 2-4, baseline 33.2",29.7%
same,body weight after three-week treatment,"[2]; compared to baseline period, n=4, p<0.05",significant weight loss
same,weekly food/calories intake,"[2]; during Beinaglutide treatment period compared to before treatment, p<0.05",significantly decreased
same,BMI after three weeks of treatment,[2]; two groups of animals,decreased
same,Week 12 BMI,"[3]; 0.2 mg three times a day with metformin, Baseline BMI 25.81",25.09 kg/m^2
same,BMI Change,"[3]; 0.2 mg three times a day with metformin, baseline to week 12, 0 mg group −0.40",−0.72
same,"difference Test-Control group in body weight change, Corrected mean","[3]; 84 days after medication, covariance analysis, P 0.0075",−0.82
same,"change in body weight from baseline, median","[3]; Test group (0.2 mg three times a day + metformin), overweight and obese patients, ITT, 84 days after medication",-2.00 kg
same,"change in body weight from baseline, Mean ± standard deviation","[3]; Test group (0.2 mg three times a day + metformin), overweight and obese patients, ITT, 84 days after medication, 248 subjects",-2.22 ± 2.55 kg
same,proportion of subjects with Weight loss ≥ 3%,[3]; [6],(40.32) %
same,proportion of subjects with weight loss ≥5%,[3]; [6],(20.97) %
same,number of subjects with Weight loss < 3%,[3]; [7],148
same,number of subjects with Weight loss < 5%,[3]; [7],196
same,number of subjects with Weight loss ≥ 3%,[3]; [7],100
same,number of subjects with Weight loss ≥ 5%,[3]; [7],52
same,proportion of subjects with Weight loss < 3%,[3]; [8],(59.68) %
same,proportion of subjects with Weight loss < 5%,[3]; [8],(79.03) %
same,BMI,"type 2 diabetic patients; 0.1 mg three times a day with metformin, treatment for 2 weeks, FAS n = 73, Day 1 26.24 ± 3.31",26.12 ± 3.29 kg/m^2
same,BMI,"type 2 diabetic patients; 0.1 mg three times a day with metformin, treatment for 4 weeks, FAS n = 73, Day 1 26.24 ± 3.31",26.02 ± 3.33 kg/m^2
same,BMI,"type 2 diabetic patients; 0.1 mg three times a day with metformin, treatment for 8 weeks, FAS n = 73, Day 1 26.24 ± 3.31",25.84 ± 3.25 kg/m^2
same,BMI,"type 2 diabetic patients; 0.1 mg three times a day with metformin, treatment for 12 weeks, FAS n = 73, Day 1 26.24 ± 3.31",25.76 ± 3.21 kg/m^2
same,BMI,"type 2 diabetic patients; 0.2 mg three times a day with metformin, treatment for 2 weeks, FAS n = 70, Day 1 25.14 ± 3.10",25.03 ± 3.21 kg/m^2
same,BMI,"type 2 diabetic patients; 0.2 mg three times a day with metformin, treatment for 4 weeks, FAS n = 70, Day 1 25.14 ± 3.10",24.85 ± 3.25 kg/m^2
same,BMI,"type 2 diabetic patients; 0.2 mg three times a day with metformin, treatment for 8 weeks, FAS n = 70, Day 1 25.14 ± 3.10",24.54 ± 3.33 kg/m^2
same,BMI,"type 2 diabetic patients; 0.2 mg three times a day with metformin, treatment for 12 weeks, FAS n = 70, Day 1 25.14 ± 3.10",24.43 ± 3.42 kg/m^2
same,most common side effects,diabetes patients,nausea and vomiting
same,adverse events,[4]; Beinaglutide clinical trials,mild to moderate nausea and vomiting
same,peak time,"[4]; after administration (injection), type 2 diabetic patients",20 min
same,half-life,"[4]; human, in vivo, other: injection, type 2 diabetic patients, read-out: half-life (duration of action)",~15 min
same,effect on glucose-induced high blood sugar,[5],lower glucose-induced high blood sugar
same,effect on increase of blood sugar induced by alloxan and streptozotocin,mice,reduce the increase of blood sugar induced by alloxan and streptozotocin
